This is an account of results in patent US9988371B2, “Benzimidazole analogues and related methods” (The Arizona Board of Regents, on Behalf of the University …, priority 2014, dated 2018).

The IC50 is the midpoint of a concentration-inhibition curve.

One test concerns TT cells xenografted. The test is described as follows: TT cell xenograft in SCID mice. The test is classed as in vivo. The conditions noted are these: 0.3, 1.0, or 3.0 mg/kg daily, oral gavage, 28 days; all tested doses. The text has this: FIG. 7: Anti-tumorigenic activity of Pz-1 on TT cells xenografted into SCID mice. […] Average volumes of tumors are reported±SD (standard deviation). TT cells (7.5×10^6/mouse) were inoculated subcutaneously into dorsal portions (both sides) of 39 female SCID mice (Jackson Laboratories, Bar Harbor, Me.). After 5 weeks, at least one tumour was present in each mouse and a total of 70 tumours were visible: 56 tumours were 40-150 mm^3 and 14 tumours were <40 mm^3. […] Tumor-bearing animals were randomly assigned to receive Pz-1 (0.3, 1.0, or 3.0 mg/kg, daily) (29 mice, 52 tumours) or vehicle (10 mice, 18 tumours) by oral gavage. Treatment was administered for 28 consecutive days. Tumor diameters were measured with calipers every week. Tumor volumes (V) were calculated by the rotational ellipsoid formula: V=A×B^2/2 (A=axial diameter; B=rotational diameter) and reported as average volumes±standard deviations. […]
TT cells (7.5×10^6/mouse) were inoculated subcutaneously into dorsal portions (both sides) of 39 SCID mice (Jackson Laboratories, Bar Harbor, Me.). […] Tumor diameters were measured with callipers every week. Tumor volumes (V) were calculated by the rotational ellipsoid formula: V=A×B^2/2 (A=axial diameter; B=rotational diameter) and reported as average volumes±standard deviations. […] Tumor diameters were measured with calipers every 1-2 days. […]

Another test addresses T1, RET wild type (Homo sapiens, UniProt P07949).
T1 construct: purchased Invitrogen
Description: RET biochemical assay (EZ Reader mobility shift). The conditions noted are these: 30 min pre-incubation, 200 μM ATP, exact potency beyond measurable limit. The procedure: Suitable screening assays for RET and VEGFR2 small molecule kinase inhibitors (from a kinase-directed fragment (KDF) library) were established. The RET kinase assay utilizes an EZ Reader Electrophoresis Mobility Chip Instrument (Caliper Life Science). In the assay, 2 nM recombinant RET enzyme (Invitrogen) is pre-incubated with a small molecule inhibitor or control buffer for 30 min to allow the Type-II kinase inhibitor to trap the DFG-out conformation to which the inhibitors bind. This class of inhibitors is indirectly competitive with ATP, and slow binding kinetics (low kd) allow the inhibitors to appear non-competitive and pseudo-irreversible in nature. Because of the non-competitive nature of these inhibitors, a more biologically relevant concentration of ATP substrate (200 μM) was incorporated in this assay. After 30 min of pre-incubation, a substrate mix containing […], 20 mM MgCl2 and 1.5 μM fluorescently labeled RET substrate peptide (Caliper LS, peptide 22; Perkin Elmer, USA) was added. The conversion level of the RET substrate peptide was then determined utilizing the EZ Reader instrument. […]
The RET kinase assay utilizes a microfluidics based instrument for direct kinase activity readout (Caliper Life Science). […] The conversion level of the RET substrate peptide was determined utilizing the EZ Reader instrument. […]

Some results are limits rather than exact numbers.

T1 sequence (P07949 724-1016 limits assumed): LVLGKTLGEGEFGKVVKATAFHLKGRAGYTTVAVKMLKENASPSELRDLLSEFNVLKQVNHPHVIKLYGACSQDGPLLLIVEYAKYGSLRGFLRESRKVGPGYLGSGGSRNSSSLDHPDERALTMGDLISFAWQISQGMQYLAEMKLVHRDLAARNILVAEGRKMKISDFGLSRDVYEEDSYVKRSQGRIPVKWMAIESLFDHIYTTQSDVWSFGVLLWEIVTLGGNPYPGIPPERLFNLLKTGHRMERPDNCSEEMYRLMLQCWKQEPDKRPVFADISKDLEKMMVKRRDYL

Consider `Cn1cc(-c2ccc3c(c2)ncn3-c2ccc(CC(=O)Nc3cc(C(C)(C)C)on3)cc2)cn1` [Pz-1, N-(5-(tert-butyl)isoxazol-3-yl)-2-(4-(5-(1-methyl-1H-pyrazol-4-yl)-1H-benzo[d]imidazol-1-yl)phenyl)acetamide], for which the tumor growth result with TT cells xenografted is on record as “strongly inhibited tumor growth”. Besides, the IC50 at RET wild type was under 1 nM.
